Values quoted from earlier work, collected in article PMC7449315 (Journal for Immunotherapy of Cancer, 2020).

Conditions: early phase I studies, single agent; ref 28 30 31; cited from earlier work

| SMILES | best overall response |
| --- | --- |
| O[C@H](C[C@H]1c2c(F)cccc2-c2cncn21)[C@H]1CC[C@H](O)CC1 [navoximod] | stable disease |
| NS(=O)(=O)NCCNc1nonc1C(=NO)Nc1ccc(F)c(Br)c1 [epacadostat] | stable disease |
| Cn1cc(C[C@@H](N)C(=O)O)c2ccccc21 [indoximod] | stable disease |
